Data published in patent US7094895B2, “Tyrosyl derivatives and their use as P2X7 receptor modulators” (King Pharmaceuticals Research & Development, Inc., priority 2001, dated 2006).

System: Adriamycin-resistant cells (HL-60)
Test: not given
Settings: KN62 2 μM (non-cytotoxic), Adriamycin-resistant HL-60 cells; cited from earlier work

Row | Compound | enhancement of VP-16 induced topoisomerase II-mediated DNA cleavable complex formation
1 | CN([C@@H](Cc1ccc(OS(=O)(=O)c2cccc3cnccc23)cc1)C(=O)N1CCN(c2ccccc2)CC1)S(=O)(=O)c1cccc2cnccc12 [KN62, 1-N,0-(bis(1,5-isoquinolinesulfonyl)-N-methyl-L-tyrosyl)-4-phenylpiperazine] | 2- to 4 fold

Target: T1, P2X7 receptor (Homo sapiens, UniProt Q99572)
T1 sequence (Q99572 1-595): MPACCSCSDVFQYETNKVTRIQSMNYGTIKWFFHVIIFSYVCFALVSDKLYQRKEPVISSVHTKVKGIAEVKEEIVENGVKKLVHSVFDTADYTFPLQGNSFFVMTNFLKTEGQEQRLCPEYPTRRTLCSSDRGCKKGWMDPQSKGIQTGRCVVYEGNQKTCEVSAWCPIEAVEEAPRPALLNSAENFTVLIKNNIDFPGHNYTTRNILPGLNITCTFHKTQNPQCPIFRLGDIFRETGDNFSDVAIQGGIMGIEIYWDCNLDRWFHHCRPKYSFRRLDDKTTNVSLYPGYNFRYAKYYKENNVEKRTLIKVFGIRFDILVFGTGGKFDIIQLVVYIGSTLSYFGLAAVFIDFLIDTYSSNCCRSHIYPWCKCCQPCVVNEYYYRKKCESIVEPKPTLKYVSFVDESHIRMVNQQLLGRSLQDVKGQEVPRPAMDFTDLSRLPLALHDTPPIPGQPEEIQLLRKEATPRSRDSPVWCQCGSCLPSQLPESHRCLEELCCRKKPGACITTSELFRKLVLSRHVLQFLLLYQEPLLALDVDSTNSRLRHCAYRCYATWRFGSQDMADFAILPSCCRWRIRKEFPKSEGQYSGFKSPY
Test: not given
Settings: at the concentration of 500 nM; cited from earlier work

Row | Compound | inhibition of the P2X7 receptor
2 | CN([C@@H](Cc1ccc(OS(=O)(=O)c2cccc3cnccc23)cc1)C(=O)N1CCN(c2ccccc2)CC1)S(=O)(=O)c1cccc2cnccc12 [KN62, 1-N,0-(bis(1,5-isoquinolinesulfonyl)-N-methyl-L-tyrosyl)-4-phenylpiperazine] | complete inhibition

Target: T1, P2X7 receptor
Test: Inhibition of ATP-induced calcium influx in human monocytes (fura-2/AM)
Type: cell-based
Set-up: endogenous in cells; host or cells: human monocytes
Settings: inhibiting calcium influx in human monocytes in the presence of 1 mM ATP; read-out: P2X7 Antagonist Activity IC50
Description: Table 1 illustrates the IC50 values for compounds toward inhibiting calcium influx in human monocytes in the presence of 1 mM ATP.
Ca^2+ measurements. Changes in Ca^2+ were measured with the fluorescent indicator fura-2/AM (Molecular Probes, Inc., Eugene, Oreg.) as described previously.^32 Briefly, cells were loaded with […] of fura-2/AM and incubated in a thermostat-controlled (37° C.) and magnetically stirred fluorometer cuvette (model LS50, Perkin-Elmer Ltd., Beaconsfield, UK). Intracellular Ca^2+ concentration was determined with the 340/380 excitation ratio at an emission wavelength of 500 nm. All experiments were repeated three times.

Row | IC50 [nM] | Compound
3 | 1120 | 1-[(S)-N,O-bis-(isoquinolinesulfonyl)-N-methyl-tyrosyl]-4-(2,3-dimethylphenyl)-piperazine
4 | 15.8 | 1-[(S)-N,O-bis-(isoquinolinesulfonyl)-N-methyl-tyrosyl]-4-(2-chlorophenyl)-piperazine
5 | 84.1 | 1-[(S)-N,O-bis-(isoquinolinesulfonyl)-N-methyl-tyrosyl]-4-(2-methoxy-phenyl)-piperazine
6 | 33.9 | 1-[(S)-N,O-bis-(isoquinolinesulfonyl)-N-methyl-tyrosyl]-4-(3,4-dichloro-phenyl)-piperazine
7 | 14.1 | 1-[(S)-N,O-bis-(isoquinolinesulfonyl)-N-methyl-tyrosyl]-4-(3-chlorophenyl)-piperazine
8 | 31.1 | 1-[(S)-N,O-bis-(isoquinolinesulfonyl)-N-methyl-tyrosyl]-4-(3-trifluoromethyl-phenyl)-piperazine
9 | 101 | 1-[(S)-N,O-bis-(isoquinolinesulfonyl)-N-methyl-tyrosyl]-4-(4-aminophenyl)-piperazine
10 | 1.33 | 1-[(S)-N,O-bis-(isoquinolinesulfonyl)-N-methyl-tyrosyl]-4-(4-fluorophenyl)-piperazine
11 | 132 | 1-[(S)-N,O-bis-(isoquinolinesulfonyl)-N-methyl-tyrosyl]-4-(4-methoxy-phenyl)-piperazine
12 | 5.76 | 1-[(S)-N,O-bis-(isoquinolinesulfonyl)-N-methyl-tyrosyl]-4-(4-nitrophenyl)-piperazine
13 | 13.5 | 1-[(S)-N,O-bis-(isoquinolinesulfonyl)-N-methyl-tyrosyl]-4-(p-tolyl)-piperazine
14 | 170 | 1-[(S)-N,O-bis-(isoquinolinesulfonyl)-N-methyl-tyrosyl]-4-(pyridin-2-yl)-piperazine
15 | 79.8 | 1-[(S)-N,O-bis-(isoquinolinesulfonyl)-N-methyl-tyrosyl]-4-(pyrimidin-2-yl)-piperazine
16 | 21 | 1-[(S)-N,O-bis-(isoquinolinesulfonyl)-N-methyl-tyrosyl]-4-benzylpiperazine
17 | 65.3 | 1-[(S)-N,O-bis-(isoquinolinesulfonyl)-N-methyl-tyrosyl]-4-benzylpiperidine
18 | 15.1 | 1-[(S)-N,O-bis-(isoquinolinesulfonyl)-N-methyl-tyrosyl]-4-o-tolyl-piperazine
19 | 600 | 1-[(S)-N,O-bis-(isoquinolinesulfonyl)-N-methyl-tyrosyl]-4-phenethyl-piperazine
20 | 6.02 | 1-[(S)-N,O-bis-(isoquinolinesulfonyl)tyrosyl]-4-(4-fluorophenyl)-piperazine
21 | 28.8 | 1-[(S)-N,O-bis-(isoquinolinesulfonyl)tyrosyl]-4-(o-tolyl)-piperazine
22 | 9120 | Cc1ccccc1N1CCN(C(=O)[C@H](Cc2ccc(OS(=O)(=O)c3cccnc3)cc2)N(C)S(=O)(=O)c2cccnc2)CC1 [1-[(S)-N,O-bis-(3-pyridinesulfonyl)-N-methyl-tyrosyl]-4-(2-methylphenyl)-piperazine]
23 | 955 | CN([C@@H](Cc1ccc(OS(=O)(=O)c2cccnc2)cc1)C(=O)N1CCN(c2ccccc2)CC1)S(=O)(=O)c1cccnc1 [1-[(S)-N,O-bis-(3-pyridinesulfonyl)-N-methyl-tyrosyl]-4-phenyl-piperazine]
24 | 18.5 | CN([C@@H](Cc1ccc(OS(=O)(=O)c2cccc3cnccc23)cc1)C(=O)N1CCN(c2ccccc2F)CC1)S(=O)(=O)c1cccc2cnccc12 [1-[(S)-N,O-bis-(isoquinolinesulfonyl)-N-methyl-tyrosyl]-4-(2-fluorophenyl)-piperazine]]
25 | 70.8 | CC(=O)c1ccc(N2CCN(C(=O)[C@H](Cc3ccc(OS(=O)(=O)c4cccc5cnccc45)cc3)N(C)S(=O)(=O)c3cccc4cnccc34)CC2)cc1 [1-[(S)-N,O-bis-(isoquinolinesulfonyl)-N-methyl-tyrosyl]-4-(4-acetylphenyl)-piperazine]]
26 | 105 | CN([C@@H](Cc1ccc(OS(=O)(=O)c2cccc3cnccc23)cc1)C(=O)N1CCN(c2ccc(Cl)cc2)CC1)S(=O)(=O)c1cccc2cnccc12 [1-[(S)-N,O-bis-(isoquinolinesulfonyl)-N-methyl-tyrosyl]-4-(4-chlorophenyl)-piperazine]]
27 | 97.7 | CN([C@@H](Cc1ccc(OS(=O)(=O)c2cccc3cnccc23)cc1)C(=O)N1CCN(c2ccc(C#N)cc2)CC1)S(=O)(=O)c1cccc2cnccc12 [1-[(S)-N,O-bis-(isoquinolinesulfonyl)-N-methyl-tyrosyl]-4-(4-cyanophenyl)-piperazine]]
28 | 380 | CN([C@@H](Cc1ccc(OS(=O)(=O)c2cccc3cnccc23)cc1)C(=O)N1CCN(C(=O)c2ccc(F)cc2)CC1)S(=O)(=O)c1cccc2cnccc12 [1-[(S)-N,O-bis-(isoquinolinesulfonyl)-N-methyl-tyrosyl]-4-(4-fluorobenzoyl)-piperazine]]
29 | 5.8 | CN([C@@H](Cc1ccc(OS(=O)(=O)c2cccc3cnccc23)cc1)C(=O)N1CCN(Cc2ccc(F)cc2)CC1)S(=O)(=O)c1cccc2cnccc12 [1-[(S)-N,O-bis-(isoquinolinesulfonyl)-N-methyl-tyrosyl]-4-(4-fluorobenzyl)-piperazine]]
30 | 176 | CN([C@@H](Cc1ccc(OS(=O)(=O)c2cccc3cnccc23)cc1)C(=O)N1CCN(c2ccc(I)cc2)CC1)S(=O)(=O)c1cccc2cnccc12 [1-[(S)-N,O-bis-(isoquinolinesulfonyl)-N-methyl-tyrosyl]-4-(4-iodophenyl)-piperazine]]
31 | 12.3 | CN([C@@H](Cc1ccc(OS(=O)(=O)c2cccc3cnccc23)cc1)C(=O)N1CCN(Cc2ccc([N+](=O)[O-])cc2)CC1)S(=O)(=O)c1cccc2cnccc12 [1-[(S)-N,O-bis-(isoquinolinesulfonyl)-N-methyl-tyrosyl]-4-(4-nitrobenzyl)-piperazine]]
32 | 51 | CN([C@@H](Cc1ccc(OS(=O)(=O)c2cccc3cnccc23)cc1)C(=O)N1CCN(c2ccccc2)CC1)S(=O)(=O)c1cccc2cnccc12 [KN62, 1-N,0-(bis(1,5-isoquinolinesulfonyl)-N-methyl-L-tyrosyl)-4-phenylpiperazine]
